This is an account of results in article PMC12259508, “Expediting multiple biological properties of main bioactive compounds of Mentha pulegium L” (AMB Express, 2025).

Assay [1] concerns Listeria monocytogenes ATCC 13932. The experiment in a line: MIC and MBC determination, broth microdilution. The settings on record: for MBC / MIC: Listeria monocytogenes; for MBC: ATCC13932, 24 h; for MIC Listeria monocytogenes: broth microdilution. Format: cell-based. On the procedure:
(§1) As mentioned before, the minimum inhibitory concentration (MIC) was established using the broth microdilution method. The minimum sample concentration required to destroy the bacteria is indicated by the minimum bactericidal concentration (MBC). The microdilution method, based on MIC determination, was similarly applied. After 24 h of incubation at 37 °C, […] of sample from each tube showing no apparent growth were inoculated on Tryptone Soja agar (Biokar, Beauvais, France). The MBC was determined as the lowest concentration showing no growth on the culture medium.
On the technique in general: In broth dilution the organism is exposed to a series of concentrations in liquid medium.

Assay [2] deals with Pseudomonas aeruginosa ATCC 27853. As to the kind of experiment: MIC and MBC determination, broth microdilution. Format: cell-based. The settings on record: for MBC: ATCC27853, 24 h, read-out: MBC Pseudomonas aeruginosa. On the procedure:
as §1

Assay [3] concerns Staphylococcus aureus ATCC 29213. The experiment in a line: MIC and MBC determination, broth microdilution. Type of assay: cell-based. The settings on record: for MBC / MIC: Staphylococcus aureus; for MBC: ATCC29213, 24 h; for MIC Staphylococcus aureus: broth microdilution. How it is done:
as §1

Assay [4] deals with Escherichia coli ATCC 25922. The experiment in a line: MIC and MBC determination, broth microdilution. Format: cell-based. The settings on record: for MBC: ATCC25922, 24 h, read-out: MBC Escherichia coli. How it is done: as §1
Assay [5] concerns methicillin resistant Staphylococcus aureus (MRSA). Also noted: method as in Zhao et al. [2023b]. The settings on record: ref Zhao et al. [2023b]; cited from earlier work.
For assay [6], the target named is T1, α-amylase from Bacillus licheniformis (Bacillus licheniformis, UniProt P06278).
T1 construct: purchased
T1 sequence (P06278 30-512): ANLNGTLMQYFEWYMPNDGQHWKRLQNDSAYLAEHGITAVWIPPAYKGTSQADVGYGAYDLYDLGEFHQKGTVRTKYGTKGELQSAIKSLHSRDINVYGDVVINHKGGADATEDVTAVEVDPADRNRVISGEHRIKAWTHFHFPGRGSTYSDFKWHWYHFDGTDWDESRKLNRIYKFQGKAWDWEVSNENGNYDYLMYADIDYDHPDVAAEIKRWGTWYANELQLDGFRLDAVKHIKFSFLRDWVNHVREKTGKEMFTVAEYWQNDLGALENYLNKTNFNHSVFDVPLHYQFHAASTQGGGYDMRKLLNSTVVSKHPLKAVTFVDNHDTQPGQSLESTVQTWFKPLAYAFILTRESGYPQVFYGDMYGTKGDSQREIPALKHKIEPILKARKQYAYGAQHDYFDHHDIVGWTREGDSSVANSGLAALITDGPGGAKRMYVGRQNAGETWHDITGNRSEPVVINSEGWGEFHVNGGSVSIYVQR
The experiment in a line: α-Amylase inhibitory assay (starch/DNS). Type of assay: biochemical. The settings on record: mean ± SD, triplicate. How it is done:
(§2) The α-glucosidase from Saccharomyces cerevisiae and the α-amylase from Bacillus licheniformis were also obtained from reliable commercial sources. Additional reagents were carefully selected from reputable suppliers. Mueller–Hinton agar was sourced from Biokar in Beauvais, France. All other chemicals used are of analytical grade.
Specifically, 250μL of the sample was mixed with an equal volume of α-amylase (240 U/mL) in a 0.02 M sodium phosphate buffer (SPB) (pH = 6.9). The mixtures were incubated at 37 °C for twenty minutes. Subsequently, 250 µL of a 1% starch solution in a 0.02 M SPB (pH = 6.9) was added to the reaction mixture, and the combination was allowed to sit at 37 °C for 15 min. One milliliter of dinitrosalicylic acid (DNS) was then introduced, and the blend was brought to a boil in a water bath for ten minutes. The reaction mixture was subsequently diluted with 2 mL of distilled water, and the absorbance was measured at 540 nm using an ultraviolet–visible spectrophotometer.

The target of assay [7] is T2, α-glucosidase from Saccharomyces cerevisiae (Saccharomyces cerevisiae, UniProt P53341).
T2 construct: purchased
T2 sequence (P53341 whole entry): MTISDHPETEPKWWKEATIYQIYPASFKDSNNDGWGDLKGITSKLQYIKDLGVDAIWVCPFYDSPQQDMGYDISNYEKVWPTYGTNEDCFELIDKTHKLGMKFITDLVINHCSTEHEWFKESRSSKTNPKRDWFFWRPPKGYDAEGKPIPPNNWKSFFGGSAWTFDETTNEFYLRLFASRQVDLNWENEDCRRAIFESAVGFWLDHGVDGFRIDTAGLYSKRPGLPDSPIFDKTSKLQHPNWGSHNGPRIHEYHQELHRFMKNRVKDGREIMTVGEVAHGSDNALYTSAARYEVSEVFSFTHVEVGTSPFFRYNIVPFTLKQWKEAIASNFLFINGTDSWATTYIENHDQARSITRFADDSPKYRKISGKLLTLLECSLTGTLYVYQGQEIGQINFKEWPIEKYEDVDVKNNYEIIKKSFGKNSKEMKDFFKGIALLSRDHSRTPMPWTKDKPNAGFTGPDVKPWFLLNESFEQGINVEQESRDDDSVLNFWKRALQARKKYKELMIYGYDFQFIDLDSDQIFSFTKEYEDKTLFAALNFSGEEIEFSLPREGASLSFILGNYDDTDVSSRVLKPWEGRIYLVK
As to the kind of experiment: α-Glucosidase inhibitory assay (pNPG). Format: biochemical. The settings on record: mean ± SD, triplicate. How it is done: as §2
Initially, 200 µL of the samples were mixed with 100 µL of 0.1 M SPB (pH = 6.7) containing 0.1 U/mL of α-glucosidase enzyme. The mixture was then incubated at 37 °C for ten minutes. One milligram of pNPG was dissolved in 0.1 ml of SPB (pH = 6.7). The activity of α-glucosidase was assessed by measuring the absorbance at 405 nm following the addition of 1 mL of 0.1 M Na2CO3 to the reaction mixture.

Assay [8] deals with T3, elastase (Sus scrofa, UniProt P00772). As to the kind of experiment: Elastase inhibitory assay. Format: biochemical. How it is done:
By adapting certain aspects, the methodology of this research is based on the protocol reported by Jeddi et al. (Jeddi et al. [2023]).
Then, 200 µL of an elastase solution prepared in Tris–HCl buffer (0.2 M, pH 8.0) was mixed with 50 µL of each sample. Following a 15-min incubation at 25 °C, 200 µL of N-succinyl-Ala-Ala-p-nitroanilide solution was added, and the reaction mixtures were homogenized. Absorbances were recorded at 410 nm after an additional 20-min incubation at 25 °C. […] Furthermore, the methodology described in this study should provide a valuable resource for future research assessing the effect of other natural compounds on elastase activity, thereby expanding our understanding of their beneficial properties.

The subject of assay [9] is P. aeruginosa, S. aureus, and K. pneumoniae. Also noted: method as in Amalich et al. [2016]. The settings on record: ref Amalich et al. [2016]; cited from earlier work.
The test system of a further assay is S. epidermidis. Also noted: method as in Sonboli et al. ([2006]). The settings on record: ref Sonboli et al. ([2006]); cited from earlier work.
The test system of assay [10] is S. aureus. Also noted: method as in Sonboli et al. ([2006]). The settings on record: ref Sonboli et al. ([2006]); cited from earlier work.
Assay [11] has as its system S. aureus. Also noted: method as in Farhanghi et al. [2022]. The settings on record: ref Farhanghi et al. [2022]; cited from earlier work.
The test system of another assay is E. coli K1. Also noted: method as in Gong et al. [2021]. The settings on record: ref Gong et al. [2021], cited from earlier work.
Assay [12] has as its system Streptococcus equi subsp. equi. Details: method as in Nozohour and Jalilzadeh-amin [2021]. The settings on record: ref Nozohour and Jalilzadeh-amin [2021]; cited from earlier work.
The test system of a further assay is S. maltophilia. Also noted: method as in Baygar ([2019]). The settings on record: ref Baygar ([2019]); cited from earlier work.
On the set-up of assay [13]: method as in Luís and Domingues [2021]. The settings on record: ref Luís and Domingues [2021]; cited from earlier work.
The target of the next assay is tyrosinase (Agaricus bisporus, UniProt C7FF04). Details: method as in our previous study. The settings on record: ref our previous study; cited from earlier work.
Sequence of tyrosinase (C7FF04 1-392): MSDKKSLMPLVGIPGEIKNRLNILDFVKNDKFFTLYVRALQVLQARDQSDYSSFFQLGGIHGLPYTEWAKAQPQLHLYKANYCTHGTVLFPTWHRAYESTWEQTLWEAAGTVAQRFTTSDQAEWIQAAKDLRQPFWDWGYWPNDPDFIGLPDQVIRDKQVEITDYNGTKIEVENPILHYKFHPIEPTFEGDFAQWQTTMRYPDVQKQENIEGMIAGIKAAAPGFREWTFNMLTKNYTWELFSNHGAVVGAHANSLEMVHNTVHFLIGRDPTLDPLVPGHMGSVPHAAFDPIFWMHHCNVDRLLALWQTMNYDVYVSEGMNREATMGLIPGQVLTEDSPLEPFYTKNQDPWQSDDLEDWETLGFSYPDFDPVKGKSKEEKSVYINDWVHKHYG
Assay [14] addresses T3, elastase. Also noted: method as in our previous study. The settings on record: ref our previous study, cited from earlier work.
Another assay has as its target α-glucosidase. Details: method as in Omari et al. [2023]. The settings on record: ref Omari et al. [2023]; cited from earlier work.
The next assay concerns the target α-amylase. Details: method as in Omari et al. [2023]. The settings on record: ref Omari et al. [2023]; cited from earlier work.
The mark [15] stands for this setting: 24 h, 37 °C, read-out: MBC Listeria monocytogenes.
Where [16] appears, read: ATCC13932, broth microdilution, read-out: MIC Listeria monocytogenes.
The mark [17] stands for this setting: ATCC27853, broth microdilution, read-out: MIC Pseudomonas aeruginosa.
Where [18] appears, read: 24 h, 37 °C, read-out: MBC Staphylococcus aureus.
Where [19] appears, read: ATCC29213, broth microdilution, read-out: MIC Staphylococcus aureus.
The mark [20] stands for this setting: ATCC25922, broth microdilution, read-out: MIC Escherichia coli.

In brackets after ≈: the same amount, converted by molar mass. Read-outs that look alike come from different tables or passages of the source.

T3 sequence (P00772 27-266): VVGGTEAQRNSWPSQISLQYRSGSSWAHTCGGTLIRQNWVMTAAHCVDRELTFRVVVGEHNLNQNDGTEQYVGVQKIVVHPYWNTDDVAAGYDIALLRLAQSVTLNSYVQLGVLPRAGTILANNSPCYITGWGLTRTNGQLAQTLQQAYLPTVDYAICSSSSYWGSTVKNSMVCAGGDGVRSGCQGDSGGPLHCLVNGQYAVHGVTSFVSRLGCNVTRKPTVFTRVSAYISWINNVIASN

In the case of `O=C(N[C@H](CO)[C@H](O)c1ccc([N+](=O)[O-])cc1)C(Cl)Cl` [Chloramphenicol, reference compound], the MBC is 32 µg/mL (≈ 99 µM) in assay [1] (setting [15]), 64 µg/mL (≈ 198 µM) in assay [2] (37 °C), 32 µg/mL (≈ 99 µM) in assay [3] (setting [18]) and 32 µg/mL (≈ 99 µM) in assay [4] (37 °C). Also, the MIC in [1] (setting [16]) came out at 16 µg/mL (≈ 49.5 µM); in assay [2] (setting [17]), 64 µg/mL (≈ 198 µM); in assay [3] (setting [19]) it was 8 µg/mL (≈ 24.8 µM); in assay [4] (setting [20]), 8 µg/mL (≈ 24.8 µM).
As to `CC(C)[C@@H]1CC[C@@H](C)CC1=O` [Menthone, menthone], the “MBC MRSA” value in [5] is 7.1 µg/mL (≈ 46 µM). Besides, in assay [5], the “MIC MRSA” value is 3.5 µg/mL (≈ 22.7 µM). The IC50 is 968 µM in assay [6], 703 µM in assay [7] and 860 µM against elastase [8]. In addition, in assay [1] (24 h, 37 °C), the “MBC Listeria monocytogenes” value stood at 0.25 µg/mL (≈ 1.62 µM). The MBC in assay [1] (setting [15]) was 0.125 to 0.25 µg/mL (≈ 0.81 to 1.62 µM); in assay [2] (37 °C), 1 µg/mL (≈ 6.48 µM); in assay [3] (setting [18]), 0.125 to 0.25 µg/mL (≈ 0.81 to 1.62 µM); in assay [4] (37 °C), above 2 µg/mL. Further, the MIC in assay [1] (setting [16]) is 0.125 to 0.25 µg/mL (≈ 0.81 to 1.62 µM); in assay [2] (setting [17]), 0.5 µg/mL (≈ 3.24 µM); in [3] (setting [19]), 0.125 to 0.25 µg/mL (≈ 0.81 to 1.62 µM); in [4] (setting [20]), 1 µg/mL (≈ 6.48 µM). Moreover, the “MIC Listeria monocytogenes” value in assay [1] is reported as 0.125 µg/mL (≈ 0.81 µM). Also, the “MBC Staphylococcus aureus” value in assay [3] (24 h, 37 °C) amounted to 0.125 µg/mL (≈ 0.81 µM). In addition, the “MIC Staphylococcus aureus” value in assay [3] is reported as 0.125 µg/mL (≈ 0.81 µM).
Turning to `CC(C)=C1CC[C@@H](C)CC1=O` [Pulegone, pulegone], in assay [9], the “inhibitory effects on P. aeruginosa, S. aureus, and K. pneumoniae” value is 2.80–11.20 µl/mL. Moreover, the IC50 is 1200 µM in assay [6], 783 µM in assay [7] and 774 µM against elastase [8]. Besides, the “activity against S. epidermidis” value in the assay with S. epidermidis was 1.8 ± 0.3 mg/mL. Further, the “MBC Listeria monocytogenes” value in assay [1] (24 h, 37 °C) is 0.125 µg/mL (≈ 0.821 µM). The MBC in [1] (read-out: MBC Listeria monocytogenes, 24 h, 37 °C) was 0.125 to 0.25 µg/mL (≈ 0.821 to 1.64 µM); in assay [2] it was 0.5 µg/mL (≈ 3.28 µM); in [3] (read-out: MBC Staphylococcus aureus, 24 h, 37 °C) it was 0.125 to 0.25 µg/mL (≈ 0.821 to 1.64 µM); in assay [4], 0.5 µg/mL (≈ 3.28 µM). Besides, the MIC in [1] (ATCC13932, read-out: MIC Listeria monocytogenes, broth microdilution) is 0.125 to 0.25 µg/mL (≈ 0.821 to 1.64 µM); in assay [2] (ATCC27853, read-out: MIC Pseudomonas aeruginosa), 0.5 µg/mL (≈ 3.28 µM); in assay [3] (ATCC29213, read-out: MIC Staphylococcus aureus, broth microdilution), 0.125 to 0.25 µg/mL (≈ 0.821 to 1.64 µM); in [4] (ATCC25922, read-out: MIC Escherichia coli) it was 0.25 µg/mL (≈ 1.64 µM). The “MIC Listeria monocytogenes” value in assay [1] is recorded as 0.125 µg/mL (≈ 0.821 µM). In addition, in assay [3] (24 h, 37 °C), the “MBC Staphylococcus aureus” value is 0.25 µg/mL (≈ 1.64 µM). The “MIC Staphylococcus aureus” value in assay [3] is listed as 0.125 µg/mL (≈ 0.821 µM). The “activity against S. aureus” value in the assay with S. aureus [10] is recorded as 1.8 ± 0.3 mg/mL. The “MIC S. aureus” value in the assay with S. aureus [11] is recorded as 5.85 μl/mL. The reduced biofilm formation with E. coli K1 (E. coli K1) is listed as 52.36%. Further, the “MBC E. coli K1” value with E. coli K1 was 47350 µg/mL (≈ 311000 µM). Further, the “MIC E. coli K1” value in the assay with E. coli K1 was 23680 µg/mL (≈ 156000 µM). The “inhibition zone Streptococcus equi subsp. equi” value in assay [12] is reported as 20 mm. Besides, in the assay with S. maltophilia, the “MBC S. maltophilia” value was 5000 µg/mL (≈ 32800 µM). The “MIC S. maltophilia” value in the assay with S. maltophilia is 2500 µg/mL (≈ 16400 µM). Besides, the “inhibition zone S. maltophilia” value in the assay on S. maltophilia was 28 mm.
Regarding `CC(=O)Oc1ccccc1C(=O)O` [acetylsalicylic acid], in assay [13], the “IC50 inhibition of protein denaturation” value is on record as 89.47 ± 2.64 %, v/v.
For the compound `CC12CCC(CC1)C(C)(C)O2` [eucalyptol, reference compound], in the assay with S. aureus [11], the “MIC S. aureus” value was 23.43 μl/mL.
On to `C=C(C)[C@H]1CC=C(C)CC1` [limonene], for which the IC50 anti-tyrosinase at tyrosinase is 74.24 ± 2.06 µg/mL (≈ 545 µM). At elastase [14], the IC50 anti-elastase is 91.25 ± 3.06 µg/mL (≈ 670 µM).
As for `CC1=CCC2CC1C2(C)C` (stereo not drawn) [α-pinene], the “IC50 α-glucosidase” value at α-glucosidase is 95.62 ± 4.11 µg/mL (≈ 702 µM). On α-amylase, the “IC50 α-amylase” value was 82.12 ± 4.52 µg/mL (≈ 603 µM). Further, the IC50 on elastase [14] (read-out: IC50 anti-elastase (converted)) was 471 µM.

As a reminder, the MBC is the lowest tested concentration that kills the bacteria rather than only halting them. As a reminder, the MIC is the lowest concentration found to suppress growth. By IC50 is commonly meant the concentration needed to halve the response being measured.
